Laboratory results: US11065266B2, “Method of treating melanoma using an inhibitor of an atypical protein kinase C” (UNIVERSITY OF SOUTH FLORIDA, priority 2016, dated 2021)

Assays:
Format in all cases: cell-based, human
SK-MEL-2 cells [1] = assay: Western blot of protein levels; parameters: reduction of PKC-ι level / reduction of pPKC-ι level / reduction of PKC-ζ level / reduction of pPKC-ζ level: concentration or dose not given beside the values; details: for reduction of PKC-ζ level / reduction of PKC-ι level / reduction of pPKC-ζ level / reduction of pPKC-ι level: vs respective control
Method: Approximately 2×10^5 cells from PCS-200-013 and SK-MEL-2 cell lines were plated in T25 flasks until they become 70% confluent. Confluent cells were semi-synchronized by contact inhibition and serum starvation for 48 hrs. Subsequently, cells were incubated with serum and atypical inhibitors. The cells were removed at specific times and were placed in ice to terminate the incubation. Cells were washed at least two times with ice cold DPBS. Cells were then scrapped, re-suspended and sonicated in 500 μL of homogenization buffer (50 mM HEPES—pH 7.5), 150 mM NaCl, 0.1% Triton X, 1 mM EDTA (ethylenediaminetetraacetic acid), 2 mM EGTA [glycol-bis (2-aminoethylether)-N, N, N′,N′-tetraacetic acid], 0.1 mM orthovanadate, 1 mM NaF, 2 mM PMSF (phenylmethylsulphonylfluoride), 1 mM DTT (dithiothreitol) and 0.15 U/mL aprotinin. Cell suspensions was then sonicated and centrifuged at 100,000 g for 30 minutes. The protein concentrations was determined using Bradford method. Subsequently, approximately 800 μg of proteins were immunoprecipitated with the antibody against desired protein. In some cases cell lysates were suspended with anti-HFS-1 antibody, rocking overnight at 4° C. Agarose beds were added after 24 hrs. Then the complex of cell lysate-anti HSF-1 antibody-agarose beads was rocked at 4° C. for 2 hrs. After washing the beads, approximately […] the sample loading buffer was added to dissolve all the protein on the beads. Proteins were then separated on sodium dodecyl sulfate polyacrylamide gel electrophoresis (SDS-PAGE) and transblotted followed by immunoblotting with anti-PKC-ζ or anti-PKC-ι or anti-HSF-1 antibody or phosphospecific antibodies. Immunoreactive bands were visualized with enhanced chemiluminescence. […]
Western blots (WB) were performed to investigate the effect of ACPD and DNDA on the expression of aPKCs on malignant melanoma. […] DNDA decreased the levels of PKC-ι by 52%, pPKC-ι by 33% in SK-MEL-2 cells and by 27% of PKC-ι and pPKC-ι by 20% in MeWo cells.
DNDA reduced the levels of PKC-ζ by 33%, pPKC-ζ by only 17% in SK-MEL-2 cells and by 60% of PKC-ζ and pPKC-ζ by 29% in MeWo cells. All values (percent) were calculated compared to their respective control in Western blot. B-actin was used as the internal control to ensure that equal amounts of proteins were loaded in each lane in SDS-PAGE.

PCS-200-013 normal cells = assay: WST-1 assay for cell viability and cytotoxicity; details: treated at IC50, 3 days
Method: (§1) Approximately 4×10^3 cells (PCS-200-013, SK-MEL-2 and MeWo) were cultured in a 96 well plate. […] This IC50 was obtained based on the cell viability counts in the previous experiments. Additional doses of sterile water or inhibitor were supplied every 24 h during 3 day incubation period. At the end of 3 day treatment, media were removed and fresh media (100 μL) were added with 4-[3-(4-iodophenyl)-2-(4-nitropheny))-2H-5-tetrazolio]-1,3-benzene disulfonate (WST-1) reagent (10 μL) to each well. The absorbance was measured at 450 nm for every 0.5 hour up to 3 hours using the Synergy HT microplate reader from Biotek (Winooski, Vt.).
(§2) WST-1 assay was performed to determine the in-vitro cytotoxicity of ACPD and DNDA on normal and malignant cell lines. Measured absorbance at 450 nm is directly proportional to the number of cells present. Cells produce a water soluble formazan with WST-1 as a result of their mitochondrial dehydrogenase activity. WST-1 assay is preferred over 3-(4,S-Dimethyl-2-thiazolyl)-2, 5-diphenyl-2Htetrazolium bromide (MTT) test since MTT needs to add acidic isopropanol to dissolve formazan which gives an additional toxicity to cells.

SK-MEL-2 cells [2] = assay: WST-1 assay for cell viability and cytotoxicity; details: treated at IC50, 3 days
Method: as §1, §2

MeWo cells [3] = assay: BME invasion assay (Calcein-AM fluorescence); details: 2.5 μM, vs control
Method: (§3) This invasion assay was performed to investigate the effect of ACPD and DNDA on malignant melanoma cell invasion in vitro. Even though it is similar to the Boyden chamber assay, it avoids scraping off the Matrigel and staining to assess migrated number of cells through filter. […] Migrated cells were stained with a fluorescent marker, Calcein-AM. Live cells cleave the ester (AM) of the molecule in order to produce fluorescence. Thus, the amount of fluorescence accumulated in the bottom chamber is proportional to the number of invaded cells. The relative fluorescent units (excitation at 485 and emission at 528 nm) after 2 h exposure were reported for inhibitor treatments for both SK-MEL-2 and MeWo cell lines compared to controls (FIG. 8D).

SK-MEL-2 cells [4] = assay: BME invasion assay (Calcein-AM fluorescence); details: 2.5 μM, vs control
Method: as §3

MeWo cells [5] = assay: Western blot of protein levels
[6] = upon increasing concentration, vs control

Structure (SMILES) | decrease of Bcl-2 levels (SK-MEL-2 cells [1]) [%] | decrease of CD44 (SK-MEL-2 cells [1]) [%] | decrease of Vimentin levels (SK-MEL-2 cells [1]) [%] | decrease of β-catenin (SK-MEL-2 cells [1]) [%] | increase of Caspase-3 levels (SK-MEL-2 cells [1]) [%] | increase of E-cadherin levels (SK-MEL-2 cells [1]) [%] | increase of NF-KB p65 levels (SK-MEL-2 cells [1]) [%] | increase of cleaved PARP levels (SK-MEL-2 cells [1]) [%] | reduction of PKC-ζ level (SK-MEL-2 cells [1]) [%] | reduction of PKC-ι level (SK-MEL-2 cells [1]) [%] | reduction of pPKC-ζ level (SK-MEL-2 cells [1]) [%] | reduction of pPKC-ι level (SK-MEL-2 cells [1]) [%] | WST-1 absorbance at 450 nm, effect on normal cells (PCS-200-013 normal cells) | WST-1 absorbance at 450 nm, effect (SK-MEL-2 cells [2]) | reduction of invasion (MeWo cells [3]) [%] | reduction of invasion (SK-MEL-2 cells [4]) [%] | decrease of Bcl-2 levels (MeWo cells [5]) [%] | decrease of CD44 (MeWo cells [5]) [%] | decrease of Vimentin levels (MeWo cells [5]) [%] | decrease of β-catenin (MeWo cells [5]) [%] | other results
CC(=O)C1=C(O)CCC1=O [ACPD, 2-acetyl-1,3-cyclopentanedione] | 13 | 19 | 51 | 39 | 26 | 18 | 31 | 14 | 42 | 43 | 29 | 31 | did not show a significant effect | did not show a significant effect | 21 | 24 | 25 | 34 | 38 | 16 | decrease of PARP levels (SK-MEL-2 cells [1]): 33%; PKC-ζ level (SK-MEL-2 cells [1]; [6]): decreased; PKC-ι level (SK-MEL-2 cells [1]; [6]): good decrease; decrease of PARP levels (MeWo cells [5]): 24%; increase of Caspase-3 levels (MeWo cells [5]): 17%; increase of E-cadherin levels (MeWo cells [5]): 35%; increase of NF-KB p65 levels (MeWo cells [5]): 69%; increase of cleaved PARP levels (MeWo cells [5]): 18%
Nc1c(S(=O)(=O)O)cc2cc(S(=O)(=O)O)ccc2c1N [DNDA, 3,4-diamino-2,7-naphthalenedisulfonic acid] | 7 | 27 | 49 | 13 | 32 | 28 | 49 | 16 | 33 | 52 | 17 | 33 | did not show a significant effect | significant decrease in absorption | 32 | 32 | 32 | 43 | 45 | 21 | increase of PARP levels (SK-MEL-2 cells [1]): 12%; increase of Caspase-3 levels (MeWo cells [5]): 39%; increase of E-cadherin levels (MeWo cells [5]): 29%; increase of NF-KB p65 levels (MeWo cells [5]): 89%; increase of PARP levels (MeWo cells [5]): 9%; increase of cleaved PARP levels (MeWo cells [5]): 10%
